Experimental data taken from ChEMBL document CHEMBL1201862, “PubChem BioAssay data set” (2004).
The source made the active and inactive calls.

How the values were obtained:
[1] = inhibitors of SNCA 5'UTR-driven reporter translation, confirmation, H4 neuroglioma cells, luminescence (AID 1988); type: functional, cell-based
[2] = off-target signal loss in HeLa-CEM21 co-culture – HeLa F-luc CTL cells, cherry-picked, counter-screen for HIV-1 Env fusion inhibitor project, dose response (AID 652040); type: functional, cell-based;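 further: potency for signal decrease marking cytotoxic or nonspecific inhibition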
[3] = Luminescence-based counterscreen assay for KLF5 inhibitors: dose response cell-based high throughput screening assay to identify cytotoxic compounds using the IEC-6 intestinal epithelial cell line. [Related pubchem assays: 1700 (Primary screen.), 1834 (Confirmation screen.), 1858 (Summary AID.), 1905 (Counterscreen.)]; type: functional
[4] = ZM109 Env clade C HIV-1 fusion inhibitors, dose response, HeLa effector, CEM target cells, luciferase, cherry-pick (AID 652058); type: functional, cell-based
[5] = Luminescence Cell-Based Dose Response HTS to Identify Inhibitors of 5'UTR Stem-Loop Driven Prion Protein mRNA Translation in H4 Neuroglioblastoma Cells. [Related pubchem assays: 1827 (Project Summary), 1813 (Primary HTS)]; type: functional
[6] = target: T1, Heat shock factor protein 1 (Mus musculus, UniProt P38532); assay: inhibition of MG132-induced HSE-luciferase signal, confirmation, cell-based, NIH3T3, luminescence, dose retest (AID 2382); type: functional;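 further: NIH3T3 fibroblasts with HSF1-driven luciferase reporter stressed by proteasome inhibitor MG132; luminescence from HSF1-driven luciferase expression after 8 hours of MG132 stress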
T1 sequence (P38532 whole entry): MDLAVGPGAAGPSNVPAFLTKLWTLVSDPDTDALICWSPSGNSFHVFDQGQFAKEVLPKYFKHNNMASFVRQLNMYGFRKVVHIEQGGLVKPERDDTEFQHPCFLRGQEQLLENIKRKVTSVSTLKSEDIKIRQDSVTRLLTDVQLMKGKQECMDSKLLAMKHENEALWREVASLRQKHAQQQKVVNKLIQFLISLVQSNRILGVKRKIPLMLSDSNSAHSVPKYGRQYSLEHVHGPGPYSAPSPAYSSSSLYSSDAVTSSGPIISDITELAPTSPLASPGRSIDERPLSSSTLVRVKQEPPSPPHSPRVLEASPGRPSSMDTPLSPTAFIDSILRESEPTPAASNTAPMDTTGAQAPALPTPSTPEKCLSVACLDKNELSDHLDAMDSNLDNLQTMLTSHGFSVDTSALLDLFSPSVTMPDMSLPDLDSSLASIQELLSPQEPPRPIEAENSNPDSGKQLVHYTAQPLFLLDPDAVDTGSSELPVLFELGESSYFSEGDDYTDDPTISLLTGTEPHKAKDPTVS

[7] = inhibitors of firefly luciferase expression or activity, dose response, H4 neuroglioma cells, luminescence (AID 1990); type: functional, cell-based
[8] = inhibitors of clade B AD8 Env fusion, dose response, cell-based, cherry-pick (AID 652062); type: functional;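 further: luciferase signal from cell-cell fusion driven by HIV-1 clade B AD8 Env; potency is for inhibitors of fusion seen as a drop in luminescence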
[9] = inhibitors of HIV Env-driven cell fusion, dose response, cherry-pick (AID 652057); type: functional, cell-based
[10] = target: T2, Microphthalmia-associated transcription factor (Homo sapiens, UniProt O75030); assay: TRPM1 promoter luciferase signal decrease, dose response, MITF inhibitor project, cell-based, SK-MEL-5, cherry-picked, set 3 (AID 493073); type: functional
T2 sequence (O75030 whole entry): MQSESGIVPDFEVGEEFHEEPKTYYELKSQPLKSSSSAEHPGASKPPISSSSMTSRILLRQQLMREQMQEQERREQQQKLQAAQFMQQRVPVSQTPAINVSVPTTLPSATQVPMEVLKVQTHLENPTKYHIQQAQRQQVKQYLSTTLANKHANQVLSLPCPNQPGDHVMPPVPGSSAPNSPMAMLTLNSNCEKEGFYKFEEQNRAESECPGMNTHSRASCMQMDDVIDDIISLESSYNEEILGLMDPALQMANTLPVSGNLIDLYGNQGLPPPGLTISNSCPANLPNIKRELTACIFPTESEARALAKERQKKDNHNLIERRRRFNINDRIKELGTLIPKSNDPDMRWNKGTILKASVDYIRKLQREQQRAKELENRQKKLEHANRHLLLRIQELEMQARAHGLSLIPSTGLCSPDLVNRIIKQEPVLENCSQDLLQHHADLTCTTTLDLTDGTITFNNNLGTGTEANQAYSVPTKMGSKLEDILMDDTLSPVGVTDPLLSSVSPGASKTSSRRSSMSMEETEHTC

[11] = A Cell Based Secondary Assay To Explore Cytotoxicity of Compounds that Sensitize Mycobacterium Tuberculosis to Beta-Lactam Antibiotics.; type: functional
[12] = system: H9c2; assay: cells; type: functional, cell-based; details: Rattus norvegicus, H9c2, Myocardium;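 further: confirmatory concentration-response retest of ultra-high-throughput screening hits for modulation of myocardial damage; cell death induced by hydrogen peroxide oxidative stress; compound pretreatment for 60 min then peroxide exposure for 2 h; potency is for protecting the cells against peroxide damage rather than for killing them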
[13] = target: Peroxisome proliferator-activated receptor gamma/Nuclear receptor coactivator 2 (Homo sapiens, UniProt P37231); type: functional;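 further: agonist potency for raising coactivator recruitment to the receptor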
[14] = target: Peroxisome proliferator-activated receptor gamma/Nuclear receptor coactivator 1 (Homo sapiens, UniProt P37231); type: functional;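 further: agonist potency as compounds enhance coactivator SRC-1 recruitment to PPARgamma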
Peroxisome proliferator-activated receptor gamma/Nuclear receptor coactivator 1, sequence (P37231 whole entry): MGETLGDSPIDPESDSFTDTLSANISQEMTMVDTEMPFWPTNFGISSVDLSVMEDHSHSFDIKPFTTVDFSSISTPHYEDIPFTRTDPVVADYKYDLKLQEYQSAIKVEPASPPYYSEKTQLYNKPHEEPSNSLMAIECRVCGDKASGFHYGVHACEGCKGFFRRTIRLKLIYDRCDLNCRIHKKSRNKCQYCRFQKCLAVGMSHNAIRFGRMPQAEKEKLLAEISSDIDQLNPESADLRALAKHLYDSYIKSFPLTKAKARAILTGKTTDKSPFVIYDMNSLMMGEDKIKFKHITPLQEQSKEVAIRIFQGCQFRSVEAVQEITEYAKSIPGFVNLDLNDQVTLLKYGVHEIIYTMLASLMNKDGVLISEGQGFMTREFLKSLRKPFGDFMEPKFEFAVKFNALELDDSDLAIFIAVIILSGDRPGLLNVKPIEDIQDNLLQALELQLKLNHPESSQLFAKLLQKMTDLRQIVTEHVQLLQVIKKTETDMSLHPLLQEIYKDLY
Peroxisome proliferator-activated receptor gamma/Nuclear receptor coactivator 1, sequence (Q15788 whole entry, further chain): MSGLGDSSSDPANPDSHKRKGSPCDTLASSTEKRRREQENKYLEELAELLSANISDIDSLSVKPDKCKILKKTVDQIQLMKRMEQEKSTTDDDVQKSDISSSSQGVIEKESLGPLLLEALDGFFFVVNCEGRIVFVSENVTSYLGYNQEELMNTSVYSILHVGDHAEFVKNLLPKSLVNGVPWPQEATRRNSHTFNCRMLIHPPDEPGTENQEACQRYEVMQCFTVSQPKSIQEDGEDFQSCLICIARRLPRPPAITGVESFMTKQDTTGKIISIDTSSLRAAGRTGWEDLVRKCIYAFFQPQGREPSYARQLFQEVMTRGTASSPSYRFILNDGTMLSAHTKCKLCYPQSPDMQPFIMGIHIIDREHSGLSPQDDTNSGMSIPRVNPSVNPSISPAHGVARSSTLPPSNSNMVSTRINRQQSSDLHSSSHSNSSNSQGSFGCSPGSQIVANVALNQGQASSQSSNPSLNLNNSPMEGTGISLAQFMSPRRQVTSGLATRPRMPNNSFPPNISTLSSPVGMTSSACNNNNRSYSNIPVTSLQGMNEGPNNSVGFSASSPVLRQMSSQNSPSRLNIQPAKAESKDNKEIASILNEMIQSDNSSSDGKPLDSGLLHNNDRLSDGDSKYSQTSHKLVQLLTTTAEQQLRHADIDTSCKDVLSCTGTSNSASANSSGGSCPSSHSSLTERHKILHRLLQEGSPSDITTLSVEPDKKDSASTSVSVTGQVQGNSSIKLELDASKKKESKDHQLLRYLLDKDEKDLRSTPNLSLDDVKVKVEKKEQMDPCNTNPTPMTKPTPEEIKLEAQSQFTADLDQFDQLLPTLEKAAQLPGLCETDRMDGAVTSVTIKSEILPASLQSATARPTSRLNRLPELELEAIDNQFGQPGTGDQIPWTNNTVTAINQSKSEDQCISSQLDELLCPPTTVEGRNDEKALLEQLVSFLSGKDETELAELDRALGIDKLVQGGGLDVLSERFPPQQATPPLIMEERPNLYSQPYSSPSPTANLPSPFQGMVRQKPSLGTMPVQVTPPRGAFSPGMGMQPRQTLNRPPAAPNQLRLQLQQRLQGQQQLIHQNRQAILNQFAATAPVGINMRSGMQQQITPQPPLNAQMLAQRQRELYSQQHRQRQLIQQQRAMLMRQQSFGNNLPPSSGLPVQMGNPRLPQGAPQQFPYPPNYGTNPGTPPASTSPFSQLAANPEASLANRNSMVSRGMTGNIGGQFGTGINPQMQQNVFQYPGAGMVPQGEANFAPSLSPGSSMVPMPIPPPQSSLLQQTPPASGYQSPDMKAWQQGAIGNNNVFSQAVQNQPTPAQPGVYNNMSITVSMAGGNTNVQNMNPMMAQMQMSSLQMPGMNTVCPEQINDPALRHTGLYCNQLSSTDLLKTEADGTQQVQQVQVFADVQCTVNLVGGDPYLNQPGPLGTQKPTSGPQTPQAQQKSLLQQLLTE

[15] = target: ADP-ribosylation factor GTPase-activating protein 1 (Rattus norvegicus, UniProt Q62848); assay: Fluorescence polarization-based biochemical high throughput dose response screening assay to identify inhibitors of ADP-ribosylation factor GTPase activating protein 1 (ARFGAP1).; type: functional
ADP-ribosylation factor GTPase-activating protein 1, sequence (Q62848 whole entry): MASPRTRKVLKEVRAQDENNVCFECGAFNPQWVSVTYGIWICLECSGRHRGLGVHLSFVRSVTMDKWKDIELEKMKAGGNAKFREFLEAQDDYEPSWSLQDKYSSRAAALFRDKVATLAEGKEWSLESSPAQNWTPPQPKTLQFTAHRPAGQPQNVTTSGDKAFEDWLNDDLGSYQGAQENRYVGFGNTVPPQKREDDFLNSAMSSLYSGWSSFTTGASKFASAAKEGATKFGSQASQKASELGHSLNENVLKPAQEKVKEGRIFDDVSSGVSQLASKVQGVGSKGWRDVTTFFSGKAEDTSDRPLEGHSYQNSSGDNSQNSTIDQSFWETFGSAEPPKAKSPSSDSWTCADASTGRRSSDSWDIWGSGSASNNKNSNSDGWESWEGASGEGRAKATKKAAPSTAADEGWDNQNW

[16] = target: Peroxisome proliferator-activated receptor gamma/Nuclear receptor coactivator 3 (Homo sapiens, UniProt P37231); type: functional;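 further: agonist potency for raising coactivator recruitment to the receptor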
Peroxisome proliferator-activated receptor gamma/Nuclear receptor coactivator 3, sequence (P37231 whole entry): as the sequence (P37231 whole entry) above
Peroxisome proliferator-activated receptor gamma/Nuclear receptor coactivator 3, sequence (Q9Y6Q9 whole entry, further chain): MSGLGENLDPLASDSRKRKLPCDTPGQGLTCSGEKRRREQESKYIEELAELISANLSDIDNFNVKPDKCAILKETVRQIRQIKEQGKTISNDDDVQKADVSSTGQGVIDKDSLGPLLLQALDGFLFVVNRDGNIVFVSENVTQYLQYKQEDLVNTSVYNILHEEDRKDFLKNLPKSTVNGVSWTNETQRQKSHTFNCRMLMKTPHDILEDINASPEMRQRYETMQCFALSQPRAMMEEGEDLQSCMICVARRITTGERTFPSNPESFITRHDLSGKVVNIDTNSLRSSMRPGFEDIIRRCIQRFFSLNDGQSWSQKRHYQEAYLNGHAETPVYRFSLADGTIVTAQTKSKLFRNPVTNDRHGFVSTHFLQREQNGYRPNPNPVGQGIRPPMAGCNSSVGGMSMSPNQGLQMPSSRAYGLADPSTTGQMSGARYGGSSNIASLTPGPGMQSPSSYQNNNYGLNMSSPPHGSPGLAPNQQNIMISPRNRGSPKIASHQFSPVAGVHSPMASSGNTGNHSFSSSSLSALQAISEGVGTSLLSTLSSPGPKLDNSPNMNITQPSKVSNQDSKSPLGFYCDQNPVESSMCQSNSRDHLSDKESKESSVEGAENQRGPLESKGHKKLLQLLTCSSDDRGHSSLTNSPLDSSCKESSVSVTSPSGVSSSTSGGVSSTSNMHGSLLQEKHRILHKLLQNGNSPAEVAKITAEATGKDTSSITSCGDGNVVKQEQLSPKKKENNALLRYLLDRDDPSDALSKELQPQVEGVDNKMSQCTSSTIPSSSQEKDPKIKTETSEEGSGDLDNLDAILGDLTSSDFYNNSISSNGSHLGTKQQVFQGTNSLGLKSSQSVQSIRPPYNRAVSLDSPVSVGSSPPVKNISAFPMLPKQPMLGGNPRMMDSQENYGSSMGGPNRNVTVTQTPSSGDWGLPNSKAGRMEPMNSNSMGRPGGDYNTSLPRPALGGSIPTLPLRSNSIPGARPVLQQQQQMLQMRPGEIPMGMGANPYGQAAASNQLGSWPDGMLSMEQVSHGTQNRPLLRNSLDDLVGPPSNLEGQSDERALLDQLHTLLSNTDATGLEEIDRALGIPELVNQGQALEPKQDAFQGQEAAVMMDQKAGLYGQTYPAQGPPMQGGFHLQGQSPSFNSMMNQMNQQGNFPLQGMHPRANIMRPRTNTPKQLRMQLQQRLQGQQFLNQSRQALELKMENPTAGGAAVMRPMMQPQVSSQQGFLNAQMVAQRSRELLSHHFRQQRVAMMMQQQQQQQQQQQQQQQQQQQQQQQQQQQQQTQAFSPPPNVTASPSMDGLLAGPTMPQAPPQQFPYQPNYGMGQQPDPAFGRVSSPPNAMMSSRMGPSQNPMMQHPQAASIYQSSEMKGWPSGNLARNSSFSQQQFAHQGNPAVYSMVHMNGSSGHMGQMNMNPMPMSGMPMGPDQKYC

Q: With `O=C(NC1=NCCS1)C1COc2ccccc2O1` (stereo unspecified) as the molecule, how does the EC50 [1] read?
A: 0.149 µM (active)

Q: What about the AC50 [2] of the same molecule?
A: 3.15 µM (active)

Q: What about the IC50 [3] of the same molecule?
A: > 39.8 µM (not active)

Q: And the AC50 [4]?
A: 13.7 µM (active)

Q: What about the EC50 [5] of the same molecule?
A: > 60 µM (not active)

Q: And the EC50 [6]?
A: 8.01 µM (active)

Q: And the EC50 [7]?
A: 3.37 µM (active)

Q: And the AC50 [8]?
A: 3.6 µM (active)

Q: And the AC50 [9]?
A: 1.62 µM (active)

Q: And the AC50 [10]?
A: 1.7 µM (active)

Q: For `Nc1c(C(=O)NC2CC2)c2nc3ccccc3nc2n1-c1ccc2c(c1)OCO2`, which CC50 [11] is on record?
A: > 40 µM (active)

Q: And the IC50 [12]?
A: > 79 µM (inactive)

Q: Which results are given for `COc1ccccc1CNC(=O)CSc1nc(N)c(C#N)c(-c2cccs2)c1C#N`?
A: EC50 [13]: 67.6 µM (not active); EC50 [14]: > 79.4 µM (not active); IC50 [15]: 43.2 µM (inactive); EC50 [16]: > 79.4 µM (not active)
